Molecules are shown by their SMILES.

The assay concerns the target full-length human His-tagged BTK (Homo sapiens (Human), UniProt Q06187). Description: BTK HTRF assay (Cisbio KinEASE-TK). It counts as biochemical. The settings on record: 6 nM BTK, 30 uM ATP, 15 min preincubation. A general note: TR-FRET usually uses a lanthanide donor and a delayed reading to cut background.

full-length human His-tagged BTK, sequence (Q06187 whole entry): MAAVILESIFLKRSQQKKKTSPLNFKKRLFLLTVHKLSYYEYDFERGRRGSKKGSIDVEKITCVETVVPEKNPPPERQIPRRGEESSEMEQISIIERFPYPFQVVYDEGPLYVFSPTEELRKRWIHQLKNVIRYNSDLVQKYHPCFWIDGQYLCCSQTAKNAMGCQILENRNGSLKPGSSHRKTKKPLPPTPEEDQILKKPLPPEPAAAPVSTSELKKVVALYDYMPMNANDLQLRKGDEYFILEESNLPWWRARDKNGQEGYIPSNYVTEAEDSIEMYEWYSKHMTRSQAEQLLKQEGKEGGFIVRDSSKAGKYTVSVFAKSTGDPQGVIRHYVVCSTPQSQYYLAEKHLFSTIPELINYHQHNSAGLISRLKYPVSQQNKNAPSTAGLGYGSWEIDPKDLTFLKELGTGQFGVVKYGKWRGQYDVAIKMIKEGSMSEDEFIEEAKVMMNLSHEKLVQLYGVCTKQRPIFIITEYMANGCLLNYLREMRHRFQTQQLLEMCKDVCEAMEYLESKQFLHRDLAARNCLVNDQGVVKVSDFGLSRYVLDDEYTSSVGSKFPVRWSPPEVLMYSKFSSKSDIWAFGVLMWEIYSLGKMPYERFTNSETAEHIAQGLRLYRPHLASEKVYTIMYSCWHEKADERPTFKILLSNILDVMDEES
Method: An HTRF assay (Cisbio KinEASE-TK cat #62TK0PEC) was performed to quantitate the ability of test compounds to inhibit BTK mediated phosphorylation of substrate. Assays were assembled in 384 well plates where 6 nM of full-length human His-tagged BTK (Life Technologies cat # PV3587) and test compound at varying concentrations were preincubated for 15 minutes at 28° C. Then, 1 uM of TK substrate-biotin and 30 uM ATP were added and incubated for an additional 30 minutes at 28° C.

The term IC50 denotes the concentration at which inhibition is half-maximal. A low value points to greater potency. In turn, `C=CC(=O)N1CC[C@]2(C1)C[C@H](n1nc(-c3ccc(OC)cc3Cl)c(C(N)=O)c1N)C2` [Example 159] displayed an IC50 of 20 nM.

(Values after patent US10875852B2, “Heteroaromatic compounds as BTK inhibitors” (Boehringer Ingelheim International GmbH, priority 2012, dated 2020).)
